Data from US10689354B2, “Aminoazole derivative” (Teijin Pharma Limited, priority 2015, dated 2020).

How the values were obtained:
[1] = biological target: T1, androgen receptor (AR-LBD) (Rattus norvegicus, UniProt P15207); test: Evaluation of androgen receptor affinity (PolarScreen Androgen Receptor Competitor Assay Kit, Red; fluorescence polarization); conditions: 22° C. for 5 hours, relative to binding rate of 1 μM DHT, read-out: AR affinity (pEC50) (converted)
T1 construct: 5 μL of 2×AR-LBD/Fluoromone AL Red Complex contained in the kit; purchased Invitrogen
T1 sequence (P15207 651-882 limits assumed): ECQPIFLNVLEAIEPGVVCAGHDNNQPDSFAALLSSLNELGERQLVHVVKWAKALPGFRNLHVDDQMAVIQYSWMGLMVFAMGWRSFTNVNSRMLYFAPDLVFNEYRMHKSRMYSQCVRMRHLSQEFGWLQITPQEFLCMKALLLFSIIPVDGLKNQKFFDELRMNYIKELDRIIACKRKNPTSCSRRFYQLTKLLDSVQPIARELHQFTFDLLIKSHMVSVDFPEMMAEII
Summary of the method: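 Test compound and the 2× AR-LBD/Fluoromone AL Red complex were combined in duplicate wells. After reacting 5 h at 22° C, polarization was measured. pEC50 was derived by 4-parameter fitting, normalizing to binding obtained with 1 μM dihydrotestosterone.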

human androgen receptor = biological target: T2, human androgen receptor (Homo sapiens, UniProt P10275); test: Reporter assay of an androgen receptor responsive sequence (luciferase, transiently transfected HEK293 cells); assay type: cell-based; conditions: 24 hours incubation, relative to activity of 100 nM DHT, read-out: AR transcriptive activity (pEC50) (converted)
T2 construct: expressed in transfected cells; host or cells: HEK293
T2 sequence (P10275 1-920): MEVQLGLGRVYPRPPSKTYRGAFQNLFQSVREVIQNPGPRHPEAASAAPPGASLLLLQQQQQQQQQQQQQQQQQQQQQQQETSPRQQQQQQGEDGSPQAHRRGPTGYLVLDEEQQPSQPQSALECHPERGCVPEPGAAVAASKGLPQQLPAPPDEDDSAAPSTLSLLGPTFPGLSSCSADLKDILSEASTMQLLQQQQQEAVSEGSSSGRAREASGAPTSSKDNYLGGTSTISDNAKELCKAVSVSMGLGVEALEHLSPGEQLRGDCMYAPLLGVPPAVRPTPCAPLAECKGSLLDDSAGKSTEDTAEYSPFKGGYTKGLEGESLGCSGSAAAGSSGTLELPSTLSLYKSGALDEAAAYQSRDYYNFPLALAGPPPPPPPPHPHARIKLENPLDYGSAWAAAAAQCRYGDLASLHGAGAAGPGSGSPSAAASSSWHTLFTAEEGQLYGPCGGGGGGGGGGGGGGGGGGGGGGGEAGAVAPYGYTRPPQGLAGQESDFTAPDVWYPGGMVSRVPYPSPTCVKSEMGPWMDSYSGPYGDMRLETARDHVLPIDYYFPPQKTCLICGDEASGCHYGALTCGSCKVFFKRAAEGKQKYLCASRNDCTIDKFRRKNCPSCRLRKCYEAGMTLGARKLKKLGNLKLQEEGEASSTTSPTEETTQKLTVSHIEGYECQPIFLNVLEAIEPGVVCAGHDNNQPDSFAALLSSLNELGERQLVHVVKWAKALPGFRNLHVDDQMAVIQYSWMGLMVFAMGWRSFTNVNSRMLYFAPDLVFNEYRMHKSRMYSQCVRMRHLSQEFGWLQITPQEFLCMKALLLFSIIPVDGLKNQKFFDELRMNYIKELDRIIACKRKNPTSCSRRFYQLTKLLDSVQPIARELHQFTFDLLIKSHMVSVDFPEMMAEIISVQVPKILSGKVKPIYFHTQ
Protocol: Reporter Assay of an Androgen Receptor Responsive Sequence
To examine the agonist activity of compounds for androgen, a reporter assay using an androgen receptor responsive sequence was conducted.
Using Lipofectamine 2000 (Invitrogen), a plasmid mixture (pGL4-ARE (200 ng/well), pcDNA3-hAR (20 ng/well), pRL-TK (Promega) (150 ng/well)) was transiently transfected into HEK293 cells. The contents of the plasmid (mixture) are as follows:
pGL4-ARE is a reporter plasmid containing firefly luciferase sequence under the control of androgen receptor responsive sequence; pcDNA3-hAR is a plasmid containing full-length sequence of human androgen receptor under the constant control of CMV promoter; pRL-TK is a plasmid containing Renilla Luciferase sequence under the control of herpes simplex virus thymidine kinase and used as an internal standard for evaluations of transfection efficiency and compound toxicity.
After the incubation of Lipofectamine 2000 and the plasmid mixture in Opti-MEM for 20 minutes, the mixture was mixed with a cell suspension prepared with Opti-MEM in the similar way, and the cell suspension was plated to a 96-well plate at 20000 cells/well. The transfection was conducted by incubating the plates under the condition of 5% CO2 at 37° C. for 3 hours. Three hours after the transfection, the culture medium was removed and a compound solution prepared by DMEM supplemented with 5% FBS and treated with charcoal was added, and the mixture was incubated under the condition of 5% CO2 at 37° C. for 24 hours. After the incubation with the compound, luciferase activities were measured with a luminometer using Dual-Glo™ Luciferase Assay System (Promega). The measurement of the luciferase activities was performed in accordance with the protocol recommended by Promega. The activity of the compound was determined by comparing to the activity of 100 nM of DHT, and quantified the logarithm value (pEC50) of reciprocal value of the effective concentration of the compound which is equal to 50% of the activity value by applying a 4 parameter goodness-of-fit calculation.

| EC50 [1] [nM] | EC50 (human androgen receptor) [nM] | Structure (SMILES) |
| --- | --- | --- |
| 50.1 | 794 | Cc1sc(N(CCc2ccc(Cl)cc2)CC[C@H]2CCCC[C@@H]2O)nc1C(=O)NS(C)(=O)=O (racemic) [Compound 146, 2-[2-(4-chlorophenyl)ethyl-[2-[trans-2-hydroxycyclohexyl]ethyl]amino]-5-methyl-N-methylsulfonyl-thiazole-4-carboxamide] |
| 158 | 1000 | Cc1sc(N(Cc2ccc(F)cc2)[C@H]2C[C@@H]2c2ccccc2)nc1C(=O)NS(C)(=O)=O (racemic) [Compound 149, 2-[(4-fluorophenyl)methyl-(trans-2-phenylcyclopropyl)amino]-5-methyl-N-methylsulfonyl-thiazole-4-carboxamide] |
| 79.4 | 631 | Cc1sc(N(Cc2ccc(Cl)cc2)[C@H]2C[C@@H]2c2ccccc2)nc1C(=O)NS(C)(=O)=O (racemic) [Compound 150, 2-[(4-chlorophenyl)methyl-(trans-2-phenylcyclopropyl)amino]-5-methyl-N-methylsulfonyl-thiazole-4-carboxamide] |
| 251 | 251 | Cc1sc(N(CC[C@@H]2CCCC[C@@H]2O)c2ccc(C#N)cc2)nc1C(=O)NS(C)(=O)=O (racemic) [Compound 409, 2-[4-cyano-N-[2-[cis-2-hydroxycyclohexyl]ethyl]anilino]-5-methyl-N-methylsulfonyl-thiazole-4-carboxamide] |
| 158 | 316 | Cc1sc(N(CC[C@@H]2CCCC[C@H]2O)c2ccc(C#N)cc2)nc1C(=O)NS(C)(=O)=O (racemic) [Compound 410, 2-[4-cyano-N-[2-[trans-2-hydroxycyclohexyl]ethyl]anilino]-5-methyl-N-methylsulfonyl-thiazole-4-carboxamide] |
| 501 | 1580 | Cc1sc(N(CC[C@H]2CC[C@@H](O)C2)c2ccc(C#N)cc2)nc1C(=O)NS(C)(=O)=O (racemic) [Compound 436, 2-[4-cyano-N-[2-[cis-3-hydroxycyclopentyl]ethyl]anilino]-5-methyl-N-methylsulfonyl-thiazole-4-carboxamide] |
| 631 | 1260 | Cc1sc(N(C[C@@H]2CCCC[C@H](O)C2)c2ccc(C#N)cc2)nc1C(=O)NS(C)(=O)=O (racemic) [Compound 473, 2-[4-cyano-N-[[cis-3-hydroxycycloheptyl]methyl]anilino]-5-methyl-N-methylsulfonyl-thiazole-4-carboxamide] |
| 794 | 1000 | Cc1sc(N(C[C@@H]2CCCC[C@@H](O)C2)c2ccc(C#N)cc2)nc1C(=O)NS(C)(=O)=O (racemic) [Compound 474, 2-[4-cyano-N-[[trans-3-hydroxycycloheptyl]methyl]anilino]-5-methyl-N-methylsulfonyl-thiazole-4-carboxamide] |
| 316 | 2510 | Cc1oc(N(CCc2ccc(Cl)cc2)CC[C@@H]2CCCC[C@H]2O)nc1C(=O)NS(C)(=O)=O (racemic) [Compound 547, 2-[2-(4-chlorophenyl)ethyl-[2-[trans-2-hydroxycyclohexyl]ethyl]amino]-5-methyl-N-methylsulfonyl-oxazole-4-carboxamide] |
| 794 | 7940 | Cc1oc(N(CC[C@@H]2CCCC[C@H]2O)c2ccc(C#N)cc2)nc1C(=O)NS(C)(=O)=O (racemic) [Compound 624, 2-[4-cyano-N-[2-[trans-2-hydroxycyclohexyl]ethyl]anilino]-5-methyl-N-methylsulfonyl-oxazole-4-carboxamide] |
| 316 | 2510 | CCc1oc(N(CC[C@@H]2CCCC[C@H]2O)c2ccc(C#N)cc2)nc1C(=O)NS(C)(=O)=O (racemic) [Compound 629, 2-[4-cyano-N-[2-[trans-2-hydroxycyclohexyl]ethyl]anilino]-5-ethyl-N-methylsulfonyl-oxazole-4-carboxamide] |
| 63.1 | 79.4 | Cc1sc(N(Cc2ccccc2)c2ccc(C#N)cc2)nc1C(=O)NS(C)(=O)=O [Compound 1, 2-(N-benzyl-4-cyano-anilino)-5-methyl-N-methylsulfonyl-thiazole-4-carboxamide] |
| 100 | 100 | Cc1sc(N(Cc2csc(C(F)(F)F)n2)c2ccc(C#N)cc2)nc1C(=O)NS(C)(=O)=O [Compound 2, 2-[4-cyano-N-[[2-(trifluoromethyl)thiazol-4-yl]methyl]anilino]-5-methyl-N-methylsulfonyl-thiazole-4-carboxamide] |
| 63.1 | 126 | COc1cccc(CN(c2ccc(C#N)cc2)c2nc(C(=O)NS(C)(=O)=O)c(C)s2)c1 [Compound 3, 2-[4-cyano-N-[(3-methoxyphenyl)methyl]anilino]-5-methyl-N-methylsulfonyl-thiazole-4-carboxamide] |
| 25.1 | 63.1 | Cc1sc(N(Cc2cccc(OC(F)F)c2)c2ccc(C#N)cc2)nc1C(=O)NS(C)(=O)=O [Compound 4, 2-[4-cyano-N-[[3-(difluoromethoxy)phenyl]methyl]anilino]-5-methyl-N-methylsulfonyl-thiazole-4-carboxamide] |
| 100 | 251 | Cc1sc(N(Cc2ccccc2OC(F)F)c2ccc(C#N)cc2)nc1C(=O)NS(C)(=O)=O [Compound 5, 2-[4-cyano-N-[[2-(difluoromethoxy)phenyl]methyl]anilino]-5-methyl-N-methylsulfonyl-thiazole-4-carboxamide] |
| 200 | 316 | Cc1sc(N(Cc2cccc(CO)c2)c2ccc(C#N)cc2)nc1C(=O)NS(C)(=O)=O [Compound 6, 2-[4-cyano-N-[[3-(hydroxymethyl)phenyl]methyl]anilino]-5-methyl-N-methylsulfonyl-thiazole-4-carboxamide] |
| 31.6 | 63.1 | Cc1sc(N(Cc2ccc(OC(F)(F)F)cc2)c2ccc(C#N)cc2)nc1C(=O)NS(C)(=O)=O [Compound 7, 2-[4-cyano-N-[[4-(trifluoromethoxy)phenyl]methyl]anilino]-5-methyl-N-methylsulfonyl-thiazole-4-carboxamide] |
| 100 | 398 | Cc1sc(N(Cc2cccc(C#N)c2)c2ccc(C#N)cc2)nc1C(=O)NS(C)(=O)=O [Compound 9, 2-[4-cyano-N-[(3-cyanophenyl)methyl]anilino]-5-methyl-N-methylsulfonyl-thiazole-4-carboxamide] |
|  | > 10000 | Cc1sc(N(CCC2CCCCC2)Cc2ccc(Cl)cc2)nc1C(=O)NS(=O)(=O)C1CC1 [Compound 730, 2-[(4-chlorophenyl)methyl-(2-cyclohexylethyl)amino]-N-cyclopropylsulfonyl-5-methyl-thiazole-4-carboxamide] |
